Assay results as given in patent US9896423B2, “Deuterium substituted 1-[2-(2,4-dimethyl-phenylsulfanyl)-phenyl]piperazine compound or derivatives thereof, and pharmaceutical composition and use thereof” (Jiangsu Jibeier Pharmaceutical Co. Ltd., priority 2014, dated 2018).
Several values for one entry are separate records, joined by “and”; a condition that tells them apart may be missing. Equal entries are not always repeated. Where two headings read alike, the source gives them in different places.

Legend:
Male ICR mice = experiment: Mice swimming test; type: in vivo
Description: The following method is used for testing the antidepression effect of the compound of the present application. ICR mice or SD rats, gavaged for two successive weeks, were subjected to mice swimming test, mice tail suspension test and rats swimming test. See below for details of the tests and results.
Male ICR mice weighing 18 g to 20 g were used. They were fed on sterilized standard feed.
The compound administered in the test was 1-{2-[2,4-bis(trideuteriomethyl)phenylsulfanyl]phenyl}piperazine hydrobromic acid salt (XX for short). Vortioxetine (YY for short) was used as a control sample. Venlafaxine HCl (from Wyeth, USA) was used as a positive control.
Vortioxetine (15 mg) was combined with 10% hydroxypropyl-β-cyclodextrin to form a solution of 100 mL and was administered at daily dose of 3 mg/kg. 1-{2-[2,4-bis(trideuteriomethyl)phenylsulfanyl]phenyl}piperazine hydrobromic acid salt (15 mg and 7.5 mg) was combined with 10% hydroxypropyl-β-cyclodextrin to form two solutions of 100 mL and was administered at daily doses of 3 mg/kg and 1.5 mg/kg, respectively. Venlafaxine HCl (75 mg) was combined with 0.5% CMC-Na to form a solution of 100 mL and was administered at daily dose of […].
A recording and analysis system for small-animal behavior (Noldus) was used.
All the eighty mice were subjected to prescreening one day before the administration. The mice, fasted for 4 hours were put in a round glass tank (ø 14 cm×h 20 cm, with water of 10 cm depth and at a temperature of 25° C.) to swim. […] The whole swimming course was recorded by the video and the data were collected and analyzed automatically by Noldus software.
The forty qualified mice were divided into 4 groups, each of which had 10 mice, according to the Excel random grouping.
The medicaments were administered to each group by gavage with the amount of 0.2 ml per 10 g of body weight, once a day for 14 successive days. One hour later after the last oral administration, the mice were allowed to swim for 6 min. The video recorded the whole swimming course, and the Noldus software automatically collected and analyzed the data.
The data was given as “average±standard deviation” (x±s). One-way analysis of variance (one-way ANOVA) was used for data difference statistics. Differences among the groups were determined by P<0.05.

[1] = single oral dose of [14C]-labeled vortioxetine; cited from earlier work
[2] = Pharmacokinetic test in rats, intravenous injection; type: in vivo, SD rats; settings: 2 mg/kg iv; for concentration at 0.05 h / concentration at 0.133 h / concentration at 4 h / concentration at 6 h / concentration at 9 h / concentration at 12 h / concentration at 24 h: male, SD, rat, plasma, intravenous, 2 mg/kg
Method: The preferred compound of the present disclosure was assessed in rats for its pharmacokinetic profile.
SD rats, male and female, weighing 150 to 250 g
Mobile phase: 10 mM ammonium formate aqueous solution:methanol=15:85
The ionization source was electrospray ionization source. The detection mode was positive mode. Multiple reaction monitoring (MRM) was used as the scanning mode. The ion reaction for the quantitative analysis was the following: m/z was 305.2\150.0 for XX, and 256.1\167.1 for diphenhydramine (the internal standard).
Four male SD rats were taken. The dosage was calculated as 5 mL/kg body weight and 2 mg/kg. XX or YY was dissolved in DMSO (3% of a total volume) and castor oil (3% of the total volume) was added to the solution, followed by agitating with a vortex mixer. Subsequently, saline was added to the mixture to the total volume to afford the intravenous injection for the rats. The injections were intravenously administered to four male SD rats. Blood from the rats' orbits was collected 3 min, 8 min, 15 min, 30 min, 1 hr, 2 hr, 3 hr, 4 hr, 6 hr, 9 hr, 12 hr and 24 hr later after the injection, respectively.
After the blood collection, the tubes were immediately gently turned upside down at least five times to ensure sufficient mixing, and placed on ice. Heparin was added for anticoagulation. The samples were centrifuged at 8000 rpm for 5 min to separate serum from erythrocyte. The serum was transferred with a pipettor to 2 mL polypropylene (PP) tubes, which were marked with the name of the compound and the time points, and stored in a refrigerator at −40° C. before LC-MS analysis. Samples with high concentrations were diluted with rat blank plasma.
2.5 μL of Meth-H2O and 5 μL of the internal standard solution (20 ng/mL, IS) were added to 50 μL of the plasma. Subsequently, 150 μL of methanol was added to the mixture to precipitate protein and the samples were then centrifuged at 13000 rpm for 5 min. The upper organic phase was taken out, filtrated with a 0.22 μM microporous membrane, and 2 μL of the sample was injected for the LC-MS analysis.

## Cc1ccc(Sc2ccccc2N2CCNCC2)c(C)c1 [YY, 1-[2-(2,4-dimethyl-phenylsulfanyl)-phenyl]piperazine]
Male ICR mice; 3 mg/kg gavage, two successive weeks
  effect on length of time that the mice stopped swimming vs blank control: did not shorten
Male ICR mice; mice, gavage once a day for 14 days, 3 mg/kg, n = 10, x ± s
  Duration without Movement within the Last 4 min of the Whole 6 min: 199.6 ± 26.1 s
[1]
  radioactive metabolites recovered in the feces: ~26%
  radioactive metabolites recovered in the urine: approximately 59%
[2]; 0.05 h after administration, individual rats
  Concentrations in Plasma of Rats after Intravenous Injection: 0.1232 µg/mL and 0.1272 µg/mL
[2]; 0.133 h, individual rats
  Concentrations in Plasma of Rats after Intravenous Injection: 0.089 µg/mL and 0.0859 µg/mL
[2]; 0.25 h, individual rats
  Concentrations in Plasma of Rats after Intravenous Injection: 0.0788 µg/mL and 0.0773 µg/mL
[2]; 0.5 h, individual rats
  Concentrations in Plasma of Rats after Intravenous Injection: 0.0769 µg/mL and 0.0713 µg/mL
[2]; 1 h, individual rats
  Concentrations in Plasma of Rats after Intravenous Injection: 0.0733 µg/mL and 0.0686 µg/mL
[2]; 2 h, individual rats
  Concentrations in Plasma of Rats after Intravenous Injection: 0.0695 µg/mL and 0.0681 µg/mL
[2]; 3 h, individual rats
  Concentrations in Plasma of Rats after Intravenous Injection: 0.0534 µg/mL and 0.0498 µg/mL
[2]; 4 h, individual rats
  Concentrations in Plasma of Rats after Intravenous Injection: 0.0385 µg/mL and 0.0276 µg/mL
[2]; 6 h, individual rats
  Concentrations in Plasma of Rats after Intravenous Injection: 0.0284 µg/mL and 0.0258 µg/mL
[2]; 9 h, individual rats
  Concentrations in Plasma of Rats after Intravenous Injection: 0.0161 µg/mL and 0.0186 µg/mL
[2]; 12 h, individual rats
  Concentrations in Plasma of Rats after Intravenous Injection: 0.00786 µg/mL and 0.0075 µg/mL
[2]; 24 h, individual rats
  Concentrations in Plasma of Rats after Intravenous Injection: 0.00257 µg/mL and 0.00289 µg/mL
[2]; 0.05 h, mean, read-out: Concentrations in Plasma of Rats after Intravenous Injection, Mean ± SD
  concentration at 0.05 h: 0.214 ± 0.0389 µg/mL
[2]; 0.05 h after administration, individual rats, read-out: Concentrations in Plasma of Rats after Intravenous Injection
  concentration at 0.05 h: 0.134 µg/mL
[2]; 0.133 h, individual rats, read-out: Concentrations in Plasma of Rats after Intravenous Injection
  concentration at 0.133 h: 0.0865 µg/mL
[2]; 0.133 h, mean, read-out: Concentrations in Plasma of Rats after Intravenous Injection, Mean ± SD
  concentration at 0.133 h: 0.17 ± 0.0078 µg/mL
[2]; 4 h, individual rats, read-out: Concentrations in Plasma of Rats after Intravenous Injection
  concentration at 4 h: 0.0272 µg/mL
[2]; 4 h, mean, read-out: Concentrations in Plasma of Rats after Intravenous Injection, Mean ± SD
  concentration at 4 h: 0.0409 ± 0.0034 µg/mL
[2]; 6 h, individual rats, read-out: Concentrations in Plasma of Rats after Intravenous Injection
  concentration at 6 h: 0.0258 µg/mL
[2]; 6 h, mean, read-out: Concentrations in Plasma of Rats after Intravenous Injection, Mean ± SD
  concentration at 6 h: 0.0331 ± 0.00343 µg/mL
[2]; 9 h, individual rats, read-out: Concentrations in Plasma of Rats after Intravenous Injection
  concentration at 9 h: 0.0149 µg/mL
[2]; 9 h, mean, read-out: Concentrations in Plasma of Rats after Intravenous Injection, Mean ± SD
  concentration at 9 h: 0.0195 ± 0.00149 µg/mL
[2]; 12 h, individual rats, read-out: Concentrations in Plasma of Rats after Intravenous Injection
  concentration at 12 h: 0.00844 µg/mL
[2]; 12 h, mean, read-out: Concentrations in Plasma of Rats after Intravenous Injection, Mean ± SD
  concentration at 12 h: 0.00785 ± 0.00062 µg/mL
[2]; 24 h, individual rats, read-out: Concentrations in Plasma of Rats after Intravenous Injection
  concentration at 24 h: 0.00338 µg/mL
[2]; 24 h, mean, read-out: Concentrations in Plasma of Rats after Intravenous Injection, Mean ± SD
  concentration at 24 h: 0.00407 ± 5e-05 µg/mL
